Measurements from patent US8783089B2, “Device and method for determining the properties of aerosol formulations” (Boehringer Ingelheim International GmbH, priority 2008, dated 2014).

Assay: Characterisation of the air-liquid release system (Franz diffusion cell, online UV detection at 225 nm) with dissolved active substance
Type: physicochemical
Experimental: Above the membrane 6 an air chamber is formed as the second compartment 12, and the entire diffusion cell 13 (Franz cell) is surrounded by thermal insulation 9 and can be temperature controlled in the desired manner by means of a hotplate 10. The release medium is mixed by means of a magnetic stirrer 14. In order to characterise the system, first of all salbutamol sulphate, as the sample active substance, was added directly in the form of a dilute solution to the release medium (PBS, phosphate buffered saline) and measured at 225 nm in the photometer. […] Salbutamol sulphate applied to the membrane 6 reaches the maximum concentration after about ten minutes. This means that the membrane 6 forms a diffusion barrier for about six minutes. The total system has a reaction time of about ten minutes, i.e. changes in concentration caused by the release of active substance are detected with a ten minute delay. On the timescale of a typical release test over 24 hours this delay can be disregarded.

time until maximum concentration is reached (applied to the membrane 6 (regenerated cellulose), release medium PBS, 225 nm): about ten | incubation time until the active substance concentration reaches a plateau (dilute solution added directly to the release medium (PBS), measured at 225 nm): about four
Substance: salbutamol sulphate
